One series has as its system SK-MEL-2. The experiment in a line: Cytotoxicity test to cancer cell lines (SRB method), SK-MEL-2. The series is classed as cell-based. Conditions: Homo sapiens, SK-MEL-2, 48 h, read-out: Cytotoxicity ED50 SK-MEL-2. Background: Sulforhodamine B stains cellular protein and so reports cell mass.
Series [1] is described as follows: Body weight change of NCI-H460 xenografted nude mice. The series is classed as in vivo, BALB/c nude mouse. To be noted: 2 mg/kg intraperitoneal once a day.
The next series deals with MCF7. The experiment in a line: Cytotoxicity test to cancer cell lines (SRB method), MCF7. Conditions: read-out: Cytotoxicity ED50 MCF-7, MCF-7, 48 hours.
A further series has as its system A549. The experiment in a line: Cytotoxicity test to cancer cell lines (SRB method), A549. To be noted: Homo sapiens, A549, 48 h, read-out: Cytotoxicity ED50 A549.
For series [2], the system named is human lung cancer cell line NCI-H460. Nature of the series: Inhibiting effect on tumor growth, NCI-H460 xenografted nude mice. Conditions: 2 mg/kg intraperitoneal once a day, Day 14.
Description: Samples for the experiment were stored in a refrigerator all the time. […] The prepared sample is subject to be precipitated, so that tip sonication was performed right before the administration to disperse it well.
7 week-old female S.P.F. BALB/c nude mice, provided by Charles River Co., Japan, were used as test animals. The test animals were adapted in a Hepa-filter room over a week before the test. The temperature was 21±2° C., humidity was 55±5% and 12-hour light and dark cycle was automatically repeated in that lab. Solid feed (Cheiluedang) was sterilized by radioactive rays and drinking water was also sterilized by autoclave. Feed and water were taken by the animal freely. Cancer cell line used in this experiment was NCI-H460 (human lung tumor cell line) provided by Korea Research Institute of Bioscience and Biotechnology.
The tumor cell line, stored in liquid nitrogen, was thawed and cultured in a 37° C., 5% CO2 incubator for a required time. Upon completing the culture, all the cells were recovered and cell concentration of the culture fluid was adjusted using PBS to 3×10^7 cells/ml. The adjusted cell culture solution was injected hypodermically into armpit between right shoulder girdle and chest wall by 0.3 ml per mouse. From the next day of grafting, NCI-H460 xenografted nude mice were administered intraperitoneal everyday with the sample solution by 0.2 ml/20 g of weight, once a day.
After the grafting of tumor cells, the volume of a tumor in each individual was measured in three dimensions by using a vernier caliper, which was represented in the below <Mathematical Formula 2>. Tumor volume=(length×width×height)/2 <Mathematical Formula 2>
Body weight changes of animal were measured three times a week. Each xenografted nude mouse was sacrificed to separate a tumor, which was then weighed.
The subject of a further series is HCT-15. The experiment in a line: Cytotoxicity test to cancer cell lines (SRB method), HCT-15. To be noted: Homo sapiens, HCT-15, 48 h, read-out: Cytotoxicity ED50 HCT15.
In the next series the test system is SK-OV-3. Nature of the series: Cytotoxicity test to cancer cell lines (SRB method), SK-OV-3. To be noted: Homo sapiens, SK-OV-3, 48 h, read-out: Cytotoxicity ED50 SK-OV-3. The series is classed as cell-based.

Experimental findings from patent US20070179143A1 (priority 2003, published 2007) are described below.

Description for A549: Cytotoxicity to A549 (Korea Research Institute of Chemical Technology), SK-OV-3 (Korea Research Institute of Chemical Technology), SK-MEL-2 (Korea Research Institute of Chemical Technology), HCT-15 (Korea Research Institute of Chemical Technology) and MCF7 (Korean Cell Line Bank, Seoul National University School of medicine) cells was measured by Sulforhodamin-B (SRB) method (1989, National Cancer Institute (NCI)) which was developed for the measurement of in vitro anticancer activity of a drug. Cells were separated using 0.25% trypsin-EDTA solution, leading to the preparation of a cell suspension by 5×10^318 2×10^4 cells/well. Then, the suspension was distributed into a 96 well plate by 100 μl/well, which was cultured in a 37° C., 5% CO2 incubator for 24 hours. Compounds prepared in examples of the present invention were used as a sample. Precisely, the compound was dissolved in dimethylsulfoxide and diluted with RPMI 1640 medium before being used as a sample. The final concentration of the sample used varied ranging 1 μM˜0.00001 μM. The medium was removed from the 96 well plate and then diluted sample solution was added by 100 μl/well, followed by further culture in a 37° C., 5% CO2 incubator for 48 hours. Tz (time zero) plate was collected from the point of adding the sample. Upon completing the culture, the medium was removed from each well along with Tz plate, then 10% trichloroacetic acid (TCA) was added by 100 μl/well. The plate was left at 4° C. for 1 hour to let cells be fixed on the floor of the plate. After cells were fixed completely, the plate was washed with water 5-6 times to remove the remaining trichloroacetic acid solution completely and moisture was completely dried at room temperature. 0.4% Sulforhodamine-B was dissolved in 1% acetic acid solution to prepare a staining solution. Cells were stained for 30 minutes with a dye added by 100 μl to each well of the completely dried plate. Then, the plate was washed with 1% acetic acid solution 5-6 times to remove sulforhodamine-B remained uncombined with cells. Then, the plate was dried at room temperature. 10 mM Tris solution was added by 100 μ/well thereto to dissolve the dye, and optical density (OD) was measured at 520 nm with a micro plate reader.
ED50 (concentration that inhibits cancer cell growth 50%, 5.0% effective dose, nM/ml) of the sample to cancer cell was calculated as follows. OD value at the point of beginning the culture with the sample was determined as Tz (time zero) value. OD value of a well to be cultured without the sample was determined as a control value (C). OD value of a well pretreated with the sample was determined as experimental value (T). After calculating Tz, C and T, cytotoxicity of the sample was measured by the below <Mathematical Formula 1>. T≦Tz, (T−Tz)/(C−Tz)×100 T>Tz, (T−Tz)/Tz×10,0 <Mathematical Formula 1>
ED50, the concentration that can inhibit cancer cell growth by 50%, was calculated by using a regression analysis of lotus program based on the degree of cytotoxicity obtained by the <Mathematical Formula 1>.

Turning to `COc1cccc2c1C(=O)c1c(O)c3c(c(O)c1C2=O)C[C@@](O)(C(=O)CO)C[C@@H]3O[C@H]1C[C@H](N)[C@H](O)[C@H](C)O1` [Doxorubicin, reference compound], the EC50 in the series with SK-MEL-2 stood at 16 nM; in the series with MCF7 it was 50 nM; in the series on A549 it was 13 nM; in the series on HCT-15 it was 25 nM; in the series on SK-OV-3, 47 nM. For the same compound, in series [1] (Day 1), the “Body weight Change Day 1” value is listed as 100.0 ± 0.0%. Also, the “Body weight Change Day 3” value in series [1] (Day 3) is on record as 105.0 ± 4.1%. Moreover, the “Body weight Change Day 7” value in series [1] (Day 7) amounted to 103.9 ± 5.5%. The “Body weight Change Day 9” value in series [1] (Day 9) turned out to be 100.5 ± 4.6 %. The “Body weight Change Day 11” value in series [1] (Day 11) is 96.4 ± 3.5 %. For the same compound, in series [1] (Day 14), the “Body weight Change Day 14” value turned out to be 85.1 ± 1.8 %. The “Tumor Weight Day 14” value in series [2] was 534.1 ± 87.9 mg.

`COc1cc2c(c(OC)c1OC)-c1ccc(SC)c(=O)cc1[C@@H](NC(=O)c1cc(CO[N+](=O)[O-])ccc1F)CC2` [Example 17, 2-fluoro-5-nitrooxymethyl-N-[(7S)-1,2,3-trimethoxy-10-methylsulfanyl-9-oxo-5,6,7,9-tetrahydro-benzo[a]heptalen-7-yl]-benzamide]: the EC50 with SK-MEL-2 worked out at 0.17 nM; in the series with MCF7, 0.08 nM; with A549, 0.21 nM; in the series with HCT-15, 0.19 nM; in the series with SK-OV-3, 0.19 nM.

`COc1cc2c(c(OC)c1OC)-c1ccc(SC)c(=O)cc1[C@@H](NC(=O)c1cc(CO[N+](=O)[O-])cc(CO[N+](=O)[O-])c1)CC2` [Example 19, 3,5-bis-nitrooxymethyl-N-[(7S)-1,2,3-trimethoxy-10-methylsulfanyl-9-oxo-5,6,7,9-tetrahydro-benzo[a]heptalen-7-yl]-benzamide]: the EC50 with SK-MEL-2 was 31 nM; in the series on MCF7, 8.2 nM; in the series with A549, 23.5 nM; with HCT-15, 10.1 nM; with SK-OV-3, 34.8 nM.

For `COc1cc2c(c(OC)c1OC)-c1ccc(SC)c(=O)cc1[C@@H](NC(=O)c1ccc(CO[N+](=O)[O-])cc1O)CC2` [Example 20, 2-hydroxy-4-nitrooxymethyl-N-[(7S)-1,2,3-trimethoxy-10-methylsulfanyl-9-oxo-5,6,7,9-tetrahydro-benzo[a]heptalen-7-yl]-benzamide], the EC50 with SK-MEL-2 amounted to 2.47 nM; in the series with MCF7, 1.15 nM; in the series on A549, 3.93 nM; in the series with HCT-15, 1.03 nM; with SK-OV-3, 1.83 nM.

For `COc1cc2c(c(OC)c1OC)-c1ccc(SC)c(=O)cc1[C@@H](NC(=O)c1cc(CO[N+](=O)[O-])cs1)CC2` [Example 21, 4-nitrooxymethyl-thiophene-2-carboxylic acid [(7S)-1,2,3-trimethoxy-10-methylsulfanyl-9-oxo-5,6,7,9-tetrahydro-benzo[a]heptalen-7-yl]-amide], the EC50 amounted to 0.29 nM in the series on SK-MEL-2; 0.1 nM in the series with MCF7; 0.97 nM in the series on A549; 0.13 nM in the series on HCT-15; 0.59 nM with SK-OV-3.

`COc1cc2c(c(OC)c1OC)-c1ccc(SC)c(=O)cc1[C@@H](NC(=O)c1sccc1CO[N+](=O)[O-])CC2` [Example 22, 3-nitrooxymethyl-thiophene-2-carboxylic acid [(7S)-1,2,3-trimethoxy-10-methylsulfanyl-9-oxo-5,6,7,9-tetrahydro-benzo[a]heptalen-7-yl]-amide]: the EC50 was found to be 0.87 nM in the series with SK-MEL-2; 0.21 nM in the series on MCF7; 1.11 nM with A549; 0.95 nM in the series with HCT-15; 1.41 nM in the series with SK-OV-3.

Consider `COc1cc2c(c(OC)c1OC)-c1ccc(SC)c(=O)cc1[C@@H](NC(=O)Cc1cccc(CO[N+](=O)[O-])c1)CC2` [Example 23, 2-(3-nitrooxymethyl-phenyl)-N-[(7S)-1,2,3-trimethoxy-10-methylsulfanyl-9-oxo-5,6,7,9-tetrahydro-benzo[a]heptalen-7-yl]-acetamide], for which the EC50 with SK-MEL-2 came to 3.5 nM; in the series on MCF7 it was 3.3 nM; with A549, 5.4 nM; in the series with HCT-15, 3.4 nM; in the series with SK-OV-3, 5.6 nM.

With `COc1cc2c(c(OC)c1OC)-c1ccc(SC)c(=O)cc1[C@@H](NC(=O)c1cccc(COC(=O)CCCO[N+](=O)[O-])c1)CC2` [Example 34, 4-nitrooxybutyric acid-3-[(7S)-1,2,3-trimethoxy-10-methylsulfanyl-9-oxo-5,6,7,9-tetrahydro-benzo[a]heptalen-7-yl-carbamoyl]-benzylester], the EC50 in the series on SK-MEL-2 was found to be 0.01 nM; in the series with MCF7, 0.01 nM; with A549, 0.06 nM; with HCT-15 it was 0.01 nM; in the series with SK-OV-3, 0.01 nM.

Take `COc1cc2c(c(OC)c1OC)-c1ccc(SC)c(=O)cc1[C@@H](NC(=O)c1ccccc1SN=O)CC2` [Example 35, 2-nitrosothio-N-[(7S)-1,2,3-trimethoxy-10-methylsulfanyl-9-oxo-5,6,7,9-tetrahydro-benzo[a]heptalen-7-yl]-benzamide]: the EC50 with SK-MEL-2 is 41.9 nM; with MCF7 it was 24.7 nM; in the series on A549, greater than 50 nM; with HCT-15 it was 20.9 nM; with SK-OV-3, greater than 50 nM.

Turning to `COc1cc2c(c(OC)c1OC)-c1ccc(SC)c(=O)cc1[C@@H](NC(=O)c1cc(F)cc(CON=O)c1)CC2` [Example 37, 3-fluoro-5-nitrosooxymethyl-N-[(7S)-1,2,3-trimethoxy-10-methylsulfanyl-9-oxo-5,6,7,9-tetrahydro-benzo[a]heptalen-7-yl]-benzamide], the EC50 is 9.4 nM with SK-MEL-2; 10.3 nM in the series on MCF7; greater than 50 nM in the series on A549; 7.5 nM with HCT-15; 38.8 nM with SK-OV-3.

Turning to `COc1cc2c(c(OC)c1OC)-c1ccc(SC)c(=O)cc1[C@@H](NC(=O)c1cc(F)cc(CSN=O)c1)CC2` [Example 39, 3-fluoro-5-nitrosothiomethyl-N-[(7S)-1,2,3-trimethoxy-10-methylsulfanyl-9-oxo-5,6,7,9-tetrahydro-benzo[a]heptalen-7-yl]-benzamide], the EC50 in the series with SK-MEL-2 is greater than 50 nM; with MCF7 it was 5 nM; with A549, 40.7 nM; with HCT-15 it was 9.9 nM; in the series with SK-OV-3, 28.2 nM.

As to `COc1cc2c(c(OC)c1OC)-c1ccc(OC)c(=O)cc1[C@@H](NC(=O)c1cc(F)cc(CO[N+](=O)[O-])c1)CC2` [Example 40, 3-fluoro-5-nitrooxymethyl-N-[(7S)-1,2,3,10-tetramethoxy-9-oxo-5,6,7,9-tetrahydro-benzo[a]heptalen-7-yl]-benzamide], the EC50 amounted to 60.7 nM in the series on SK-MEL-2; 10.5 nM in the series on MCF7; 43.9 nM with A549; 24.3 nM in the series with HCT-15; 45.6 nM in the series with SK-OV-3.

On to `COc1cc2c(c(OC)c1OC)-c1ccc(SC)c(=O)cc1[C@@H](N(C)C(=O)c1cccc(CO[N+](=O)[O-])c1)CC2` [Example 41, 3-nitrooxymethyl-N-methyl-N-[(7S)-1,2,3-trimethoxy-10-methylsulfanyl-9-oxo-5,6,7,9-tetrahydro-benzo[a]heptalen-7-yl]-benzamide], for which the EC50 with SK-MEL-2 is greater than 50 nM; with MCF7, 47.3 nM; with A549, greater than 50 nM; with HCT-15, 36.4 nM; in the series on SK-OV-3, greater than 50 nM.

In the case of `COc1cc2c(c(OC)c1OC)-c1ccc(SC)c(=O)cc1[C@@H](N(C)C(=O)c1cc(F)cc(CO[N+](=O)[O-])c1)CC2` [Example 42, 3-fluoro-N-methyl-5-nitrooxymethyl-N-[(7S)-1,2,3-trimethoxy-10-methylsulfany-9-oxo-5,6,7,9-tetrahydro-benzo[a]heptalen-7-yl]-benzamide], the EC50 in the series with SK-MEL-2, with MCF7, with A549, with HCT-15 and in the series with SK-OV-3 was greater than 50 nM throughout.
